Some test systems named below: SN12C renal; IGROV1 ovarian; SK-MEL-28 melanoma; T-47D breast; CAKI-1 renal; PC-3 prostate; NCI-H460 lung; A549 NSCLC; OVCAR-8 ovarian; NCI/ADR-RES ovarian.
What all share (test): NCI-60 cell line screen, 48 h

Molecules are shown by their SMILES.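 Step 1: Grow cells in 96-well plates. Step 2: Expose to compound for 48 hours at 5 concentrations. Step 3: Interpolate endpoints linearly; if unreached, use highest concentration. Abbreviation: GI50, concentration required for 50% inhibition of growth. TGI: concentration producing complete growth inhibition.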

For the molecule `COC(=O)c1ccc2c(c1)C(=O)c1c-2n(CCCN)c(=O)c2cc(OC)c(OC)cc12`, the GI50 with SN12C renal was 14.9 µM; with IGROV1 ovarian it was 13.6 µM; in the assay on SK-MEL-28 melanoma it was 17.9 µM; with T-47D breast it was 18.9 µM; with CAKI-1 renal, 18.6 µM; in the assay with PC-3 prostate it was 8.73 µM. Moreover, the GI50 with NCI-H460 lung is 13 µM; in the assay with A549 NSCLC, 7.49 µM; in the assay on OVCAR-8 ovarian it was 14.5 µM; in the assay with NCI/ADR-RES ovarian it was 42.6 µM. Besides, the TGI in the assay on SN12C renal was 31.4 µM; in the assay with IGROV1 ovarian it was 29.2 µM; in the assay on SK-MEL-28 melanoma, 35.2 µM; in the assay with T-47D breast it was 44.9 µM; in the assay on CAKI-1 renal it was 37.2 µM; in the assay with PC-3 prostate, above 51.4 µM. The TGI is 29.5 µM in the assay on NCI-H460 lung, 27.2 µM in the assay on A549 NSCLC, above 55 µM with OVCAR-8 ovarian and above 100 µM in the assay with NCI/ADR-RES ovarian.
With `CCCCN(CC)c1ncnc2ccc(Br)cc12`, the GI50 was 18.8 µM with SN12C renal; 16.7 µM in the assay with IGROV1 ovarian; 18.1 µM in the assay with SK-MEL-28 melanoma; 28.9 µM in the assay on T-47D breast; 8.7 µM with CAKI-1 renal; 18.9 µM in the assay on PC-3 prostate. For the same molecule, the GI50 was 17.9 µM in the assay with NCI-H460 lung, 13.9 µM in the assay with A549 NSCLC, 14 µM in the assay on OVCAR-8 ovarian and 15.6 µM with NCI/ADR-RES ovarian. For the same molecule, the TGI with SN12C renal is 40.9 µM; in the assay on IGROV1 ovarian, above 100 µM; in the assay with SK-MEL-28 melanoma, 46.5 µM; with T-47D breast, above 100 µM; with CAKI-1 renal, 29 µM; in the assay with PC-3 prostate, 49.6 µM. For the same molecule, the TGI is 52.9 µM in the assay with NCI-H460 lung, 45.6 µM with A549 NSCLC, 34.2 µM with OVCAR-8 ovarian and 39.8 µM with NCI/ADR-RES ovarian.
Turning to `CC(=O)c1cc(-c2ccccc2N)n(-c2ccc3c(c2)OCO3)c1C`, the GI50 is 0.135 µM in the assay on SN12C renal; 0.529 µM in the assay on IGROV1 ovarian; 2.34 µM in the assay with SK-MEL-28 melanoma; 0.852 µM with T-47D breast; 0.406 µM with CAKI-1 renal; 0.317 µM in the assay with PC-3 prostate. The GI50 with NCI-H460 lung is 0.169 µM; in the assay with A549 NSCLC, 0.313 µM; with OVCAR-8 ovarian, 0.156 µM; with NCI/ADR-RES ovarian, 0.211 µM. For the same molecule, the TGI was above 100 µM in the assay with SN12C renal; above 100 µM with IGROV1 ovarian; above 73.9 µM in the assay with SK-MEL-28 melanoma; above 100 µM in the assay with T-47D breast; 83.7 µM with CAKI-1 renal; above 100 µM in the assay with PC-3 prostate. Besides, the TGI in the assay on NCI-H460 lung is 13.2 µM; with A549 NSCLC, above 100 µM; in the assay with OVCAR-8 ovarian it was above 100 µM.
`COC(=O)C(=O)C(C(=O)C(N)=O)c1nc2ccc(C(=O)c3ccccc3)cc2[nH]c1=O` (centres undefined): the TGI with SN12C renal, with IGROV1 ovarian, in the assay on SK-MEL-28 melanoma, in the assay with T-47D breast, with CAKI-1 renal and with PC-3 prostate was above 100 µM throughout. For the same molecule, the TGI in the assay on NCI-H460 lung, in the assay on A549 NSCLC, with OVCAR-8 ovarian and in the assay on NCI/ADR-RES ovarian was above 100 µM throughout.
Turning to `CCCCNC(=O)Oc1ccc(/C(=C(/CC)Cc2ccccc2)c2ccc(OCCN3CCCCCC3)cc2)cc1`, the GI50 in the assay on SN12C renal was 29.6 µM; in the assay on IGROV1 ovarian, 30.5 µM; with SK-MEL-28 melanoma, 16.5 µM; in the assay with T-47D breast it was 14.5 µM; with CAKI-1 renal it was 19.3 µM; in the assay on PC-3 prostate, 33.2 µM. Besides, the GI50 is 18.6 µM with NCI-H460 lung, 32.4 µM with A549 NSCLC, 19.1 µM in the assay with OVCAR-8 ovarian and 42.1 µM in the assay with NCI/ADR-RES ovarian. The TGI is 83.6 µM in the assay on SN12C renal; above 100 µM with IGROV1 ovarian; 33.1 µM in the assay with SK-MEL-28 melanoma; 36.9 µM in the assay on T-47D breast; 44.7 µM with CAKI-1 renal; above 100 µM with PC-3 prostate. Also, the TGI in the assay with NCI-H460 lung was 33.8 µM; in the assay on A549 NSCLC, above 100 µM; in the assay on OVCAR-8 ovarian it was 36.6 µM; in the assay with NCI/ADR-RES ovarian it was above 100 µM.
With `CC(=O)c1cccc(-c2cccc(-c3ccn(CCN4CCOCC4)n3)c2)c1`, the GI50 with SN12C renal was above 20 µM; in the assay on IGROV1 ovarian it was above 20 µM; in the assay on SK-MEL-28 melanoma it was above 20 µM; in the assay on T-47D breast, 17.4 µM; with CAKI-1 renal it was above 20 µM; in the assay with PC-3 prostate, above 20 µM. Further, the GI50 in the assay with NCI-H460 lung, in the assay on A549 NSCLC, in the assay with OVCAR-8 ovarian and in the assay with NCI/ADR-RES ovarian was above 20 µM in each case. Moreover, the TGI in the assay on SN12C renal, in the assay on IGROV1 ovarian, with SK-MEL-28 melanoma, in the assay with T-47D breast, in the assay on CAKI-1 renal and with PC-3 prostate was above 20 µM throughout. Moreover, the TGI in the assay on NCI-H460 lung, in the assay with A549 NSCLC, with OVCAR-8 ovarian and with NCI/ADR-RES ovarian was above 20 µM throughout.
In the case of `C[C@]12CC[C@@H](OC(=O)N(CCCl)N=O)C[C@@H]1CC[C@@H]1[C@@H]2CC[C@]2(C)C(=O)CC[C@@H]12`, the GI50 with SN12C renal was 8.01 µM; in the assay on IGROV1 ovarian, 3.75 µM; in the assay with SK-MEL-28 melanoma, 14.7 µM; with T-47D breast, 2.82 µM; with CAKI-1 renal it was 1.67 µM; in the assay on PC-3 prostate, 11.5 µM. Further, the GI50 in the assay on NCI-H460 lung is 0.247 µM; in the assay on A549 NSCLC, 0.73 µM; in the assay on OVCAR-8 ovarian, 7.21 µM; with NCI/ADR-RES ovarian, 4.88 µM. Besides, the TGI is 23.3 µM with SN12C renal; 24 µM in the assay on IGROV1 ovarian; 29.6 µM in the assay on SK-MEL-28 melanoma; 55.9 µM in the assay with T-47D breast; 20.7 µM with CAKI-1 renal; above 96 µM in the assay on PC-3 prostate. In addition, the TGI came to 1.75 µM in the assay with NCI-H460 lung, 4.69 µM with A549 NSCLC, 28.5 µM in the assay on OVCAR-8 ovarian and 30.2 µM in the assay on NCI/ADR-RES ovarian.

The values above are taken from PubChem BioAssay (NCI).
